Data from patent US10011629B2, “Nucleoside analogs for treatment of the flaviviridae family of viruses and cancer” (Cocrystal Pharma, Inc., priority 2015, dated 2018).
“Also recorded” adds a separate entry of the source. Where two headings read alike, the source gives them in different places.

Tests used:
[1] = system: HepG2 cells; assay: Lactic acid production in HepG2 cells; assay type: cell-based, human; details: 14-day assay
Method: To measure the effects of the compounds on lactic acid production, HepG2 cells from a stock culture were diluted and plated in 12-well culture plates at 2.5×10^4 cells per well. […] […] The culture medium was then filtered, and the lactic acid content in the medium was determined using a colorimetric lactic acid assay (Sigma-Aldrich). Since lactic acid product can be considered a marker for impaired mitochondrial function, elevated levels of lactic acid production detected in cells grown in the presence of test compounds would indicate a drug-induced cytotoxic effect.

[2] = system: mitochondrial DNA (COXII gene) in HepG2 cells; assay: Mitochondrial DNA level in HepG2 cells (real-time PCR)
Method: This assay was used in all studies described in this application that determine the effect of compounds on mitochondrial DNA content. In this assay, low-passage-number HepG2 cells were seeded at 5,000 cells/well in collagen-coated 96-well plates. Test compounds were added to the medium to obtain final concentrations of 0 μM, 0.1 μM, 10 μM and 100 μM. […] The mitochondrial cytochrome c oxidase subunit II (COXII) gene and the ß-actin or rRNA gene were amplified from 5 μl of the eluted nucleic acids using a multiplex Q-PCR protocol with suitable primers and probes for both target and reference amplifications. […] For exon 3 of the ß-actin gene (GenBank accession number E01094) the sense, probe, and antisense primers are 5′-[…]-3′ (SEQ ID NO. 4), 5′-6-[…]-3′ (SEQ ID NO. 5) and 5′-[…]-3′ (SEQ ID NO. 6), respectively. The primers and probes for the rRNA gene are commercially available from Applied Biosystems. […] The arithmetic formula for this approach is given by 2-ΔΔCT, where ΔΔCT is (CT for average target test sample−CT for target control)−(CT for average reference test−CT for reference control) (see Johnson M R, K Wang, J B Smith, M J Heslin, R B Diasio. Quantitation of dihydropyrimidine dehydrogenase expression by real-time reverse transcription polymerase chain reaction. Anal. Biochem. 2000; 278:175-184). A decrease in mitochondrial DNA content in cells grown in the presence of drug indicated mitochondrial toxicity.

[3] = Assay for bone marrow cytotoxicity; assay type: cell-based, human; details: human; organization LOBP; read-out: Bone marrow toxicity, CC50
Method: (§1) Primary human bone marrow mononuclear cells can be obtained commercially from Cambrex Bioscience (Walkersville, Md.). CFU-GM assays is carried out using a bilayer soft agar in the presence of 50 units/mL human recombinant granulocyte/macrophage colony-stimulating factor, while BFU-E assays used a […] matrix containing 1 unit/mL erythropoietin (see Sommadossi J P, Carlisle R. Toxicity of 3′-azido-3′-deoxythymidine and 9-(1,3-dihydroxy-2-propoxymethyl) guanine for normal human hepatopoietic progenitor cells in vitro. Antimicrob. Agents Chemother. 1987; 31: 452-454; Sommadossi, J P, Schinazi, R F, Chu, C K, and Xie, M Y. Comparison of cytotoxicity of the (−) and (+) enantiomer of 2′,3′-dideoxy-3′-thiacytidine in normal human bone marrow progenitor cells. Biochem. Pharmacol. 1992; 44:1921-1925). Each experiment can be performed in duplicate in cells from three different donors. AZT is used as a positive control. […] Statistical analysis can be performed with Student's t test for independent non-paired samples.

[4] = system: Primary human bone marrow mononuclear cells; assay: Assay for bone marrow cytotoxicity; assay type: cell-based; details: organization Stem cell; read-out: Bone marrow toxicity, CC50
Method: as §1

[5] = system: Huh-7 cells; assay: Cellular pharmacology in Huh7 cells (intracellular metabolites)
Method: Ice-cold 70% methanol was used as the extraction solvent. ddATP (10 nM) was used as the internal standard.

[6] = Cytotoxicity in HCV replicon assay (ΔCt rRNA); assay type: cell-based; details: human; replicon cells; CC50; read-out: CC50 or % inhibit cytotoxicity
Method: (§2) Huh 7 Clone B cells containing HCV Replicon RNA were seeded in a 96-well plate at 5000 cells/well, and the compounds tested at 10 μM in triplicate immediately after seeding. Following five days incubation (37° C., 5% CO2), total cellular RNA was isolated by using versaGene RNA purification kit from Gentra. Replicon RNA and an internal control (TaqMan rRNA control reagents, Applied Biosystems) were amplified in a single step multiplex Real Time RT-PCR Assay. The antiviral effectiveness of the compounds was calculated by subtracting the threshold RT-PCR cycle of the test compound from the threshold RT-PCR cycle of the no-drug control (ΔCt HCV). A ΔCt of 3.3 equals a 1-log reduction (equal to 90% less starting material) in Replicon RNA levels. The cytotoxicity of the compounds was also calculated by using the ΔCt rRNA values. 2′-C-Me-C was used as the positive control. To determine EC90 and IC50 values^2, ΔCt: values were first converted into fraction of starting material^3 and then were used to calculate the % inhibition.

[7] = system: HCV 1b (Huh 7 Clone B cells containing HCV Replicon RNA); assay: HCV replicon assay; assay type: cell-based; details: Hepatitis C virus
Method: as §2, with “inhibition. […]” for “inhibition.”

[8] = system: nuclear DNA (ß-actin or rRNA gene) in HepG2 cells; assay: Nuclear DNA level in HepG2 cells (real-time PCR); assay type: cell-based, human; details: Homo sapiens, HepG2, 336 h
Method: This assay was used in all studies described in this application that determine the effect of compounds on mitochondrial DNA content. In this assay, low-passage-number HepG2 cells were seeded at 5,000 cells/well in collagen-coated 96-well plates. Test compounds were added to the medium to obtain final concentrations of 0 μM, 0.1 μM, 10 μM and 100 μM. […] The mitochondrial cytochrome c oxidase subunit II (COXII) gene and the ß-actin or rRNA gene were amplified from 5 μl of the eluted nucleic acids using a multiplex Q-PCR protocol with suitable primers and probes for both target and reference amplifications. […] For exon 3 of the ß-actin gene (GenBank accession number E01094) the sense, probe, and antisense primers are 5′-[…]-3′ (SEQ ID NO. 4), 5′-6-[…]-3′ (SEQ ID NO. 5) and 5′-[…]-3′ (SEQ ID NO. 6), respectively. The primers and probes for the rRNA gene are commercially available from Applied Biosystems. […] The comparative CT method uses arithmetic formulas in which the amount of target (COXII gene) is normalized to the amount of an endogenous reference (the B-actin or rRNA gene) and is relative to a calibrator (a control with no drug at day 7). The arithmetic formula for this approach is given by 2-ΔΔCT, where ΔΔCT is (CT for average target test sample−CT for target control)−(CT for average reference test−CT for reference control) (see Johnson M R, K Wang, J B Smith, M J Heslin, R B Diasio. Quantitation of dihydropyrimidine dehydrogenase expression by real-time reverse transcription polymerase chain reaction. Anal. Biochem. 2000; 278:175-184). A decrease in mitochondrial DNA content in cells grown in the presence of drug indicated mitochondrial toxicity.

[9] = system: Primary Human Hepatocytes; assay: Cellular egress from Primary Human Hepatocytes; details: sofosbuvir pre-incubated 10 μM 12 h; time 48 hr
Method: FIGS. 6a and 6b are charts and tables showing cellular egress of Compound 9 (FIG. 6a) and sofosbuvir (FIG. 6b) from Primary Human Hepatocytes. The results are of freshly plated human hepatocytes ([…]) from a donor, where the cells were plated in 24-well plates. The compounds were pre-incubated at a concentration of 10 μM for 12 h, and cells were harvested at 0, 1, 2, 4, 10, 24 and 48 hours. The results for the monophosphate are shown in grey, for the diphosphate in orange, and for the triphosphate in blue.

[10] = system: cellular rRNA (internal control, measure of cytotoxicity); assay: Cytotoxicity in HCV replicon assay (ΔCt rRNA); assay type: cell-based; details: human
Method: as §2

[11] = Homo sapiens, HepG2, read-out: % inhibition MitDNA

CC(C)OC(=O)[C@H](C)NP(=O)(OC[C@H]1O[C@@H](n2ccc(=O)[nH]c2=O)C(F)(Br)C1O)Oc1ccccc1 (stereo in doubt) [Compound 9]
Lactic acid Production (% of control) ([1]; 10 μM): 89.5 ± 2.0 % of control
Lactic acid Production (% of control) ([1]; 50 μM): 111 ± 38.5 % of control
MitDNA Content (% of control) ([2]; HepG2 cells, 14-day assay, 10 μM, range in parentheses): 187 (169-206) % of control
MitDNA Content (% of control) ([2]; HepG2 cells, 14-day assay, 50 μM, range in parentheses): 64 (45-91) % of control
Summary (mitochondrial toxicity) ([2]; HepG2 cells, 14-day assay, mitochondrial/nuclear DNA and lactic acid): non-toxic up to 10 μM; also recorded: not toxic up to 10 μM
inhibition at 10 µM [2, 11]: < 1%
inhibition at 50 µM [2, 11]: 67.8%
CC50 [3]: > 100 µM
CC50 [4]: > 100 µM
intracellular 7-DP ([5]; human): 252 ± 14 pmol/10^6 cells
intracellular 7-MP ([5]; human): 12.4 ± 1.5 pmol/10^6 cells
intracellular 7-TP ([5]; human): 98.2 ± 2.2 pmol/10^6 cells
intracellular 9 ([5]; human): 318.4 ± 26.6 pmol/10^6 cells
CC50 at 5 days [6]: > 10 µM
EC90 ([7]; Huh-7, read-out: EC90 (μM or letter value) or % inhib HCV): 0.1 to 1 µM
inhibition at 10 µM ([8]; read-out: % inhibition nDNA): 5.2%
inhibition at 50 µM ([8]; read-out: % inhibition nDNA): 49.8%

CC(C)OC(=O)[C@H](C)N[P@](=O)(OC[C@H]1O[C@@H](n2ccc(=O)[nH]c2=O)[C@](C)(F)[C@@H]1O)Oc1ccccc1 [Sofosbuvir, reference compound]
Summary (mitochondrial toxicity) [2]: Slightly toxic
inhibition at 1 µM [2, 11]: -12%
inhibition at 10 µM [2, 11]: -18%
inhibition at 50 µM [2, 11]: 87%
IC50 ([2]; Homo sapiens, HepG2, read-out: IC50 MitDNA, HepG2 cells, 14-day assay): 36 µM
MitDNA Content (% of control) ([2]; human, 14 days, 1 μM): 57 (35-93) % of control
MitDNA Content (% of control) ([2]; human, 14 days, 10 μM): 78 (69-89) % of control
MitDNA Content (% of control) ([2]; human, 14 days, 50 μM): 200 (136-278) % of control
intracellular SOF ([5]; Huh-7 cells, 50 μM, 4 hr): 206.4 ± 3.2 pmol/10^6 cells
intracellular SOF-nuc ([5]; Huh-7 cells, 50 μM, 4 hr): BLOQ
2′-F, 2′Me UMP [9]: BLOQ
MI [9]: BLOQ
EC90 ([7]; Huh-7, HCV 1b replicon, numeric EC90, read-out: EC90 (μM or letter value) or % inhib HCV): 0.8 µM
EC50 ([7]; Huh-7, HCV 1b replicon, numeric, read-out: EC50 (μM or letter value)): 0.2 µM
inhibition at 1 µM ([8]; read-out: % inhibition nDNA): -98%
inhibition at 10 µM ([8]; read-out: % inhibition nDNA): -51%
inhibition at 50 µM ([8]; read-out: % inhibition nDNA): 93%
IC50 ([8]; read-out: IC50 nDNA, HepG2 cells, 14-day assay): 38 µM

Nc1ccn([C@@H]2O[C@H](CO)[C@@H](O)[C@@]2(F)Br)c(=O)n1 [Compound 15, 2′-Deoxy-2′-bromo-2′-fluoro Cytidine]
inhibition at 5 days, 10 µM [10]: 67.9%
inhibition at 10 µM ([7]; Huh-7, HCV 1b replicon, 10 μM): 99.9%
